Experimental data published in ChEMBL document CHEMBL5385931, “Microascones, Decahydrofluorene-Class Alkaloids from the Marine-Derived Fungus Microascus sp. SCSIO 41821” (J Nat Prod, 2024).
Values after ≈ are worked out from the molar mass of the structure shown.

What was measured:
NCI-H1975 = test: Cytotoxicity against human NCI-H1975 cells assessed as cell growth inhibition by CCK8 assay
[1] = target: Dual specificity protein phosphatase 3 (Homo sapiens, UniProt P51452); test: Inhibition of human VHR
[2] = target: T1, Tyrosine-protein phosphatase non-receptor type 1 (Homo sapiens, UniProt P18031); test: Inhibition of human PTP1B
T1 sequence (P18031 whole entry): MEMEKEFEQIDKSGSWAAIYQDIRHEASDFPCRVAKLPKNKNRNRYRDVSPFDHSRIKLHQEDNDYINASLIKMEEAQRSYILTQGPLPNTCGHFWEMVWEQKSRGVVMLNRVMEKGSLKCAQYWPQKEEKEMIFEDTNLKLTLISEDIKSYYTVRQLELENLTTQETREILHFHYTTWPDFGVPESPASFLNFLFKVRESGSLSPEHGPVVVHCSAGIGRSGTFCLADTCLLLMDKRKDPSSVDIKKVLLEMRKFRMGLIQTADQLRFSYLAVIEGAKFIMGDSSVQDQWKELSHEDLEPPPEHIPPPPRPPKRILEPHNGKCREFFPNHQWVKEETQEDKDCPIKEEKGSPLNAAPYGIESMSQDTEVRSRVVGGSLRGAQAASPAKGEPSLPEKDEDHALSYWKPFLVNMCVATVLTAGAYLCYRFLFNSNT

Staphylococcus aureus [3] = test: Antibacterial activity against methicillin-resistant Staphylococcus aureus SC41993 assessed as bacterial growth inhibition by broth microdilution method; assay type: functional
Streptococcus agalactiae = test: Antibacterial activity against Streptococcus agalactiae ATCC 13813 assessed as bacterial growth inhibition by broth microdilution method; assay type: functional
[4] = target: T2, M-phase inducer phosphatase 2 (Homo sapiens, UniProt P30305); test: Inhibition of human CDC25B
T2 sequence (P30305 whole entry): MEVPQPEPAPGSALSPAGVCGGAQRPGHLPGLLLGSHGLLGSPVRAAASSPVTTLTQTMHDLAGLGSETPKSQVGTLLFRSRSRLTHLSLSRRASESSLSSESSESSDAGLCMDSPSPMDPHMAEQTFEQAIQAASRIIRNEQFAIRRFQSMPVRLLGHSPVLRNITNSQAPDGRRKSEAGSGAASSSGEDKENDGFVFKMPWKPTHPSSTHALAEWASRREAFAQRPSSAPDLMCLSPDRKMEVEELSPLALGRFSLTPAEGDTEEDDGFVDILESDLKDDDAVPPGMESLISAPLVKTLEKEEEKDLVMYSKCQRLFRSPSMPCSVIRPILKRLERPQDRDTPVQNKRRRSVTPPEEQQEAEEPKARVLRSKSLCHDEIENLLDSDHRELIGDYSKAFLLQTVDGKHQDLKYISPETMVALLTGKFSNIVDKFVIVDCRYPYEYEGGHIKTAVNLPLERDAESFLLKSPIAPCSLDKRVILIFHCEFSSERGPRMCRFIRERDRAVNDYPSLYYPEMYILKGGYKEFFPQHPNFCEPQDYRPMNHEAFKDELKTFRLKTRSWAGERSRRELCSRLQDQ

Staphylococcus aureus [5] = test: Antibacterial activity against Staphylococcus aureus ATCC 6538 assessed as bacterial growth inhibition by broth microdilution method; assay type: functional
Escherichia coli = test: Antibacterial activity against Escherichia coli ATCC 25922 assessed as bacterial growth inhibition by broth microdilution method; assay type: functional
[6] = target: Receptor-type tyrosine-protein phosphatase F (Homo sapiens, UniProt P10586); test: Inhibition of human LAR
[7] = system: Bacillus amyloliquefaciens; test: Antibacterial activity against Bacillus amyloliquefaciens GDMCC 60233 assessed as bacterial growth inhibition by broth microdilution method; assay type: functional
HepG2 = test: Cytotoxicity against human HepG2 cells assessed as cell growth inhibition by CCK8 assay
Bacillus subtilis = test: Antibacterial activity against Bacillus subtilis BS01 assessed as bacterial growth inhibition by broth microdilution method; assay type: functional
[8] = target: Receptor-type tyrosine-protein phosphatase S (Homo sapiens, UniProt Q13332); test: Inhibition of human PTPsigma
Streptococcus iniae = test: Antibacterial activity against Streptococcus iniae SC41992 assessed as bacterial growth inhibition by broth microdilution method; assay type: functional

Receptor-type tyrosine-protein phosphatase S, sequence (Q13332 whole entry): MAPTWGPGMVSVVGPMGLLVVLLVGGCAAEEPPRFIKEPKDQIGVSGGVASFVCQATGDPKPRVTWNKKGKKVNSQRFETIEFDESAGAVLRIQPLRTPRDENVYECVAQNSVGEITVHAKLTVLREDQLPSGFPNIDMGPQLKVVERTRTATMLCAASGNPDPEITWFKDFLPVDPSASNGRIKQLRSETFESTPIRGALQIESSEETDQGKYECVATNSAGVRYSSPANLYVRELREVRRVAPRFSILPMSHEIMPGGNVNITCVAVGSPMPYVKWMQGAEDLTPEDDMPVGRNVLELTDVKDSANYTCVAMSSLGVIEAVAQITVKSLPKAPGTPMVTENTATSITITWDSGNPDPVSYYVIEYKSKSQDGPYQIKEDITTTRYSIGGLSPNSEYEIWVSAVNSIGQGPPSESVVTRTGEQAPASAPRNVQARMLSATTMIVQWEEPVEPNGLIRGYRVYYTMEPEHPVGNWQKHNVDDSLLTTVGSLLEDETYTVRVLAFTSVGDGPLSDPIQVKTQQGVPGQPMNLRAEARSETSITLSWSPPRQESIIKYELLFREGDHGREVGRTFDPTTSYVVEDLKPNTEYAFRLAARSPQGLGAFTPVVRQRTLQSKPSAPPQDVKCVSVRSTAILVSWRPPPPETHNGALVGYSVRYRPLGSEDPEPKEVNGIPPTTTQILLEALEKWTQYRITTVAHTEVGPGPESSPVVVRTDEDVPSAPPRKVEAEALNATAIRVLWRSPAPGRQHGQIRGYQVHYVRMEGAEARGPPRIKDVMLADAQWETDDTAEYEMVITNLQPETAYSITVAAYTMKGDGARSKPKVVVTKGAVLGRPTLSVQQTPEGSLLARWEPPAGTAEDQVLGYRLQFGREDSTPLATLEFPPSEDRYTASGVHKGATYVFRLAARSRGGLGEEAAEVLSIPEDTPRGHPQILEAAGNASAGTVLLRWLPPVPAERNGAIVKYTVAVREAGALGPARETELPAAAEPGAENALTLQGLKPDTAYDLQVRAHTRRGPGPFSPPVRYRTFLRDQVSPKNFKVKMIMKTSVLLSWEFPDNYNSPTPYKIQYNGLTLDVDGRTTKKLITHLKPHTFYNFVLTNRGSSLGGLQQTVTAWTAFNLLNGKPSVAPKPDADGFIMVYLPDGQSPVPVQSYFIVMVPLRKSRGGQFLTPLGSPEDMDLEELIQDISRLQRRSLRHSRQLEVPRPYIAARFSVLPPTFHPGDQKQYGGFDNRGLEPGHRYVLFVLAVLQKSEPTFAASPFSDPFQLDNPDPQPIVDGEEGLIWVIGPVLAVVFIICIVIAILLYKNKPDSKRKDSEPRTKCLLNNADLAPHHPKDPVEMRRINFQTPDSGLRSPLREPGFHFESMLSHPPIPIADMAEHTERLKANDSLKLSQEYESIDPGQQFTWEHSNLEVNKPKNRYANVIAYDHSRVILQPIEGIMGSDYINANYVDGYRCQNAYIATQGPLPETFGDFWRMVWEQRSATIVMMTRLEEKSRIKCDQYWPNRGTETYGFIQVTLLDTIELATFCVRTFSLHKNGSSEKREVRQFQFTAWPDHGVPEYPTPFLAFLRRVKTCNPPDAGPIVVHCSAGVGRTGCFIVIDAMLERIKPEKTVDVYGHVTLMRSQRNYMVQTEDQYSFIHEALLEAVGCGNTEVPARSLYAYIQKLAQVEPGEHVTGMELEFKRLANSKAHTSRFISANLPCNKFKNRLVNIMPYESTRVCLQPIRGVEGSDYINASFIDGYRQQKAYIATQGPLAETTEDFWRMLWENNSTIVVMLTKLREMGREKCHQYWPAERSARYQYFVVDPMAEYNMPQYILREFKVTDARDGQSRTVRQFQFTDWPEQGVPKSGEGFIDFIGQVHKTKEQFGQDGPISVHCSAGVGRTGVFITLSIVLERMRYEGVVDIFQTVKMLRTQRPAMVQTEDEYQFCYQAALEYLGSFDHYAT
Receptor-type tyrosine-protein phosphatase F, sequence (P10586 whole entry): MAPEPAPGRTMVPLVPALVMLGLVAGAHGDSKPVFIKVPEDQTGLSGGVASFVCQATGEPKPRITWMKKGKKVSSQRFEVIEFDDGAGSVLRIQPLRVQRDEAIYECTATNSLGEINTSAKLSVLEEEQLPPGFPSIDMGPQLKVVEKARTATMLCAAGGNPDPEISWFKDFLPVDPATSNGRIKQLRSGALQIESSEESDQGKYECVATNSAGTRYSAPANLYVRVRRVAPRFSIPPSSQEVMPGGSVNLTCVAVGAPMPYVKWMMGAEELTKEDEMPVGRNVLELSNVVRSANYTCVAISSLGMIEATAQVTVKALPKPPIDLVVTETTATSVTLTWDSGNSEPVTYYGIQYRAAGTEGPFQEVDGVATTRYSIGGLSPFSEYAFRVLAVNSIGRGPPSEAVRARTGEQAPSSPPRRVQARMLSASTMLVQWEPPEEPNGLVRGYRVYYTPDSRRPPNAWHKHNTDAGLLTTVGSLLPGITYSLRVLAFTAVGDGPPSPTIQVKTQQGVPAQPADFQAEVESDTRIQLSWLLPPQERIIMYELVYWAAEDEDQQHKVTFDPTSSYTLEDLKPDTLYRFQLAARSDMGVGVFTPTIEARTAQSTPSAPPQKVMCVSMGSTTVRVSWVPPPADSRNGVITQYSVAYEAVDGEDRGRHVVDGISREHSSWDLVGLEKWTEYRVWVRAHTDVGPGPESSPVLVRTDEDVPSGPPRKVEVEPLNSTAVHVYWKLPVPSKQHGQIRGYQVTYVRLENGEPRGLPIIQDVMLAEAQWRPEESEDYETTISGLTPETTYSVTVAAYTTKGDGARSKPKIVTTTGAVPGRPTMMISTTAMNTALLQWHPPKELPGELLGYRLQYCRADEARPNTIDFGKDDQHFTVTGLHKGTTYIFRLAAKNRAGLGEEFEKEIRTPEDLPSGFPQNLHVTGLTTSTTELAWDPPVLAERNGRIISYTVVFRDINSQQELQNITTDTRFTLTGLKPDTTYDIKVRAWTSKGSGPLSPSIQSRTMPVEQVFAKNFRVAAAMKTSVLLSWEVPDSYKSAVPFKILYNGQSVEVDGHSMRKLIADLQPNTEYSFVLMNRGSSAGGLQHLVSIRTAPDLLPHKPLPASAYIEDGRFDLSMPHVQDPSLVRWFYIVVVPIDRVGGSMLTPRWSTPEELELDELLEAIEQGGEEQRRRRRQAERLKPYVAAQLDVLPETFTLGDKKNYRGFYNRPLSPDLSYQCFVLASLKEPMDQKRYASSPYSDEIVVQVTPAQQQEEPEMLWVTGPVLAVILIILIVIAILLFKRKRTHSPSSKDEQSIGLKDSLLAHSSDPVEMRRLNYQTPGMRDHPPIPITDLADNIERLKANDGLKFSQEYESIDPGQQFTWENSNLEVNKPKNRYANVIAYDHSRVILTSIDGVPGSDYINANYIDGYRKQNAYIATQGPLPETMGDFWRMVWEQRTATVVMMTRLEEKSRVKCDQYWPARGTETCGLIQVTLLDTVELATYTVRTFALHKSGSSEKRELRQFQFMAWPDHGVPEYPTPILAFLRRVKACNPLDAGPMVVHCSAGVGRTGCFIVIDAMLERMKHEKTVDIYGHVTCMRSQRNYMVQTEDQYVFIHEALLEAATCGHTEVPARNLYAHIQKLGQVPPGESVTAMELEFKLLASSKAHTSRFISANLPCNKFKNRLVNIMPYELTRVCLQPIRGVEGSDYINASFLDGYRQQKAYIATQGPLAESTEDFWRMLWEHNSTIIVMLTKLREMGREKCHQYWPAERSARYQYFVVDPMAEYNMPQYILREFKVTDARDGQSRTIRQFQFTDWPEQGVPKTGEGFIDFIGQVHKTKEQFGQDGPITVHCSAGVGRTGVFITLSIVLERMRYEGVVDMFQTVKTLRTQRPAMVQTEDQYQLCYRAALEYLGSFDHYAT
Dual specificity protein phosphatase 3, sequence (P51452 whole entry): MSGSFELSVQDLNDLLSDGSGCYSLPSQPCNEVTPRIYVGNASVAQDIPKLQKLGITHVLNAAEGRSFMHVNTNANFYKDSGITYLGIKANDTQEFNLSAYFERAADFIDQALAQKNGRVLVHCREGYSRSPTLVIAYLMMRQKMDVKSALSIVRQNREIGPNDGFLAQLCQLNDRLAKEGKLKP

CC1=C[C@@]2(C)[C@@H]3C(=O)[C@@]45C(=O)N[C@@](O)(Cc6ccc(cc6)O[C@@H]6[C@H]7[C@@H](C[C@H](CO)C[C@@H]7C)[C@H]1[C@H]63)[C@H]4CC=C(C)[C@@H]25
IC50 (NCI-H1975): 58 µM
IC50 [1]: > 200 µM
IC50 [2]: > 200 µM
MIC (Staphylococcus aureus [3]): > 100 µg/mL
MIC (Streptococcus agalactiae): > 100 µg/mL
IC50 [4]: > 200 µM
MIC (Staphylococcus aureus [5]): > 100 µg/mL
MIC (Escherichia coli): 100 µg/mL (≈ 184 µM)
IC50 [6]: > 200 µM
MIC [7]: > 100 µg/mL
IC50 (HepG2): > 80 µM
MIC (Bacillus subtilis): 100 µg/mL (≈ 184 µM)
IC50 [8]: > 200 µM
MIC (Streptococcus iniae): 100 µg/mL (≈ 184 µM)
